Results as given in PMC6271513, “Design and Synthesis of Chalcone Derivatives as Inhibitors of the Ferredoxin — Ferredoxin-NADP^+ Reductase Interaction of Plasmodium falciparum: Pursuing New Antimalarial Agents” (Molecules, 2014).

These compounds were tested against T1, PfFd-PfFNR (Plasmodium falciparum, UniProt C6KT68+Q8IED5) (assay: cytochrome c reduction at […] nm, FNR-Fd electron transfer).
T1 construct: gene FNR; recombinant PfFNR (E. coli TG1 pTrc99A) and PfFd (E. coli JM105 pTrc99A), purified; PfFd 2Fe-2S, PfFNR flavoprotein
T1 sequence (C6KT68 56-371): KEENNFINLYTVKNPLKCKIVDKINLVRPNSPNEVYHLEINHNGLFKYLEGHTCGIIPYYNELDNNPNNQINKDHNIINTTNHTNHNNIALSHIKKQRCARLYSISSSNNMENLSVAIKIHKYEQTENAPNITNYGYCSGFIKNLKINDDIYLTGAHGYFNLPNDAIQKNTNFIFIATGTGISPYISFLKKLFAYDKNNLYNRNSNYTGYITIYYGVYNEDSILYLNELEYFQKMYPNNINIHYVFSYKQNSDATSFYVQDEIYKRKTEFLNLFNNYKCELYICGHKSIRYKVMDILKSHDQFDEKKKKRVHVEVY
T1 sequence (Q8IED5 97-194 limits assumed): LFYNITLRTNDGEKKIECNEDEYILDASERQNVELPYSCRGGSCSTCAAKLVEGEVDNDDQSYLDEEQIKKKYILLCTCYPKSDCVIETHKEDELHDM
Assay type: biochemical
Work on `COc1ccccc1/C=C/C(=O)c1ccc(N)cc1` [compound 1, (E)-1-(4-Aminophenyl)-3-(2-methoxyphenyl)prop-2-en-1-one] yielded an inhibition at 100 µM of 15.8%.
Compound `COc1cccc(/C=C/C(=O)c2ccc(N)cc2)c1` [compound 2, (E)-1-(4-Aminophenyl)-3-(3-methoxyphenyl)prop-2-en-1-one] has an inhibition at 100 µM of 22.4%.
With `COc1cccc(/C=C/C(=O)c2ccc(N)cc2)c1OC` [compound 4, (E)-1-(4-Aminophenyl)-3-(2,3-dimethoxyphenyl)prop-2-en-1-one] the inhibition at 100 µM was 31.6%.
`COc1ccc(/C=C/C(=O)c2ccc(N)cc2)c(OC)c1` [compound 5, (E)-1-(4-Aminophenyl)-3-(2,4-dimethoxyphenyl)prop-2-en-1-one] was tested, and the inhibition at 100 µM was 38.2%.
Work on `COc1ccc(OC)c(/C=C/C(=O)c2ccc(N)cc2)c1` [compound 6, (E)-1-(4-Aminophenyl)-3-(2,5-dimethoxyphenyl)prop-2-en-1-one] yielded an inhibition at 100 µM of -14.1%.
Compound `Nc1ccc(C(=O)/C=C/c2ccccc2)cc1` [compound 7, (E)-1-(4-Aminophenyl)-3-phenylprop-2-en-1-one] has an inhibition at 100 µM of 10.9%.
`COc1ccccc1/C=C/C(=O)c1ccccc1` [compound 8, (E)-3-(2-Methoxyphenyl)-1-phenylprop-2-en-1-one] showed an inhibition at 100 µM of -10.3%.
Work on `COc1cccc(/C=C/C(=O)c2ccccc2)c1` [compound 9, (E)-3-(3-Methoxyphenyl)-1-phenylprop-2-en-1-one] yielded an inhibition at 100 µM of 0%.
In the case of `COc1ccc(/C=C/C(=O)c2ccccc2)cc1` [compound 10, (E)-3-(4-Methoxyphenyl)-1-phenylprop-2-en-1-one], the inhibition at 100 µM is reported as 4.69%.
In the case of `COc1cccc(/C=C/C(=O)c2ccccc2)c1OC` [compound 11, (E)-3-(2,3-Dimethoxyphenyl)-1-phenylprop-2-en-1-one], the inhibition at 100 µM is reported as -5.88%.
For `COc1ccc(/C=C/C(=O)c2ccccc2)c(OC)c1` [compound 12, (E)-3-(2,4-Dimethoxyphenyl)-1-phenylprop-2-en-1-one], the inhibition at 100 µM was 6.25%.
Work on `COc1ccc(OC)c(/C=C/C(=O)c2ccccc2)c1` [compound 13, (E)-3-(2,5-Dimethoxyphenyl)-1-phenylprop-2-en-1-one] yielded an inhibition at 100 µM of 5.88%.
In the case of `COc1ccc(/C=C/C(=O)c2ccc(Br)cc2)cc1` [compound 14, (E)-1-(4-Bromophenyl)-3-(4-methoxyphenyl)prop-2-en-1-one], the inhibition at 100 µM is reported as 7.35%.
Compound `COc1ccc(/C=C/C(=O)c2ccc(Br)cc2)c(OC)c1` [compound 15, (E)-1-(4-Bromophenyl)-3-(2,4-dimethoxyphenyl)prop-2-en-1-one] has an inhibition at 100 µM of 26.5%.
In the case of `COc1ccc(OC)c(/C=C/C(=O)c2ccc(Br)cc2)c1` [compound 16, (E)-1-(4-Bromophenyl)-3-(2,5-dimethoxyphenyl)prop-2-en-1-one], the inhibition at 100 µM is reported as 11.8%.
Work on `O=C(/C=C/c1ccccc1)c1ccccc1` [compound 17, (E)-1,3-diphenyl-2-propen-1-one] yielded an inhibition at 100 µM of 22.1%.
